“Also recorded” adds a separate entry of the source.
Assays:
Format in all cases: cell-based, human
kidney organoids = experiment: Aristolochic acid toxicity and nephroprotection model in kidney organoids; conditions: for PGC-1a expression (real-time quantitative PCR): AA alone or AA with cilostamide
Excerpt: FIG. 34. […] Representative immunohistochemistry of aristolochic acid (AA) and tenofovir (TFV) treatments. Day 32 Kg-derived organoids. Al/AA treatments for 24H, while all TFV treatments for 48 H. Scale bars, 50 gm. Quantification determined as a percentage of DAP/+ cells. n=3, total DAP/+>1000 for each treatment. (*) indicates p-value<0.05.
FIG. 35. OAT1 inhibition by probenecid protects proximal tubules against AA toxicity. Representative immunohistochemistry of probenecid treatments with AA 2.5 gg/mL. Day 38 Kg-derived organoids. All treatments for 48 H. Scale bars, 50 um. Quantification determined as a percentage of DAPI+ cells. n=3, total DAPI+>1000 for each treatment. (*) indicates p-value<0.05.
FIG. 36. […] Representative immunohistochemistry of cilostamide and sildenafi/treatments with AA 2.5 gg/mL. Day 38 H9-derived organoids. All treatments for 48 H. Scale bars, 50 gm. Quantification determined as a percentage of DAPI+ cells. n=3, total DAPI+>1000 for each treatment. (*) indicates p-value<0.05.
FIG. 37. Real-time quantitative PCR mRNA was extracted from organoid samples and confirmed with Nanodrop. cDNA library Was generated by reverse transcription. AQP-I is prominently expressed on proximal tubules. PGC1-a is the master regulator of mitochondrial biogenesis.

NPCs in 3D culture = experiment: Growth factor and small molecule screening in 3D culture (LTL+ tubules); conditions: added in 3D culture from day 10
Procedure: FIG. 10. Spontaneous differentiation of SIX2+ cells into nephrons and growth factor screening in 3D culture. (a) Staining with PAX8 and LHX1 in hESCs on day 10 of the differentiation. hESCs were differentiated with CHIR 8 µM for 4 days, activn 10 ng/ml for 3 days, and FGF9 10 ng/ml for 3 days. […] Scale bar: 50 μm. (b) Brighfield imaging for hESCs on day 10 and 21 of the differentiation. FGF9 was withdrawn on day 10, and cells were cultured in the basic medium by day 21. Scale bars: 50 μm. (c) Brightfield and immunocytochemistry for LTL and NPHS1 in hESCs on day 28 of the differentiation. Scale bar: 50 μm. (d) The protocol for growth factor screening. Cells were replated to 3D culture on day 10, and the listed growth factors and small molecules were tested. (e) The number of LTL+ tubules in the organoids. […] (f) Brightfield imaging of 3D co-culture with an ureteric bud cell sphere. Scale bar: 100 μm. (g) Whole-mountstaining for LTL in the organoids on day 16. Scale bar: 100 μm. (h) Immunohistochemistry of the organoids on day 16. Scale bars: 50 μm. LTL: lotus tetragonolobus lectin. NPHS1: Nephrin.
To test whether the formation of epithelial structures could be facilitated by 3D culture conditions, on day 10, at the time of FGF9 withdrawal, the Inventors replated NPCs in ultra-low-attachment, round-bottom 96-well plates and cultured them for 1 week. NPCs formed 3D spherical aggregates, one per 96-well, in suspension culture.

H9 hESCs = experiment: Differentiation of hESCs into posterior intermediate mesoderm; conditions: for WT1 expression on day 7: added to CHIR in the first step, hESCs
Procedure: (§1) hPSCs grown on Geltrex were washed once with PBS (Life Technologies, #10010-049) and dissociated into single cells with Accutase ([…] Technologies, #07920). Cells were then plated at a density of 2-2.4×10^4 (H9) or 1-1.4×10^4 (HDF, 2C) cells/cm^2 onto 24-well tissue culture plates (TPP, #92024) coated with 1% Geltrex in ReproFF2 supplemented with the ROCK inhibitor Y27632 (10 μM) (TOCRIS, #1254) and FGF2 (10 ng/ml). After 72 hours, cells (50% confluent) were briefly washed in PBS and then cultured in basic differentiation medium consisting of Advanced RPMI 1640 (Life Technologies, #12633-020) and 1X L-GlutaMAX (Life Technologies, #35050-061) supplemented with CHIR99021 (8-10 μM) (TOCRIS, #4423) for 4 days to induce late primitive streak cells Noggin (5 ng/ml) was also used for hiPSC differentiation in addition to CHIR (10 μM). To induce posterior intermediate mesoderm, cells were then cultured in Advanced RPMI+1X L-GlutaMAX+activin (10 ng/mL) (R&D, #338-AC-050) for 3 days. For induction of nephron progenitor cells, the media was then changed to Advanced RPMI+1X L-GlutaMAX+FGF9 (10 ng/ml) (R&D, #273-F9-025/CF) for 7 days. CHIR (3 μM) was added to the media from day 9 to 11 of differentiation to induce renal vesicles. On day 14, cells were switched to the basic differentiation medium and cultured for an additional 7 to 14 days (total of 21 to 28 days). The medium was replaced every 2 or 3 days. A variety of growth factors and small molecules were tested for differentiation.
PAX2 and LHX1 were not expressed (FIG. 1f), confirming that activin treatment of late primitive streak cells produced posterior and not anterior IM cells.
As the posterior primitive streak is induced by a BMP4 signal gradient, the Inventors hypothesized that CHIR treatment of HDF-α hiPSCs might induce endogenous BMP4 production that promotes differentiation into the posterior primitive streak and subsequently lateral plate mesoderm. […] Optimizing the protocol for individual cell lines based on their endogenous BMP4 production maximized the efficiency of generating posterior IM.

HDF-α hiPSCs = experiment: Differentiation of hiPSCs into posterior intermediate mesoderm
Procedure: as §1, with “The medium was replaced every 2 or 3 days. A variety of growth factors and small molecules were tested for differentiation.” left out

## CCCN(CCC)S(=O)(=O)c1ccc(C(=O)O)cc1 [Probenecid, probenecid]
Kidney organoids; Probenecid 10 LIM with AA 2.5 gg/mL, 48 H, day 38 organoids
  nephroprotection against AA: provided strongest nephroprotection against AA
Kidney organoids; probenecid alone, 48 H, day 38 organoids
  damage to organoids: causes no damage to organoids

## IGF-1: growth factor tested in 3D culture screening
NPCs in 3D culture
  number of LTL+ tubules in the organoids: did not significantly increase the number of LTL+ tubules

## NC(=O)c1ccc(-c2nc(-c3ccc4c(c3)OCO4)c(-c3ccccn3)[nH]2)cc1 [SB431542]
NPCs in 3D culture
  number of LTL+ tubules in the organoids: did not significantly increase the number of LTL+ tubules

## COc1cccc2c1cc([N+](=O)[O-])c1c(C(=O)O)cc3c(c12)OCO3 [AA, aristolochic acid]
Kidney organoids
  PGC-1a expression (real-time quantitative PCR): downregulated
Kidney organoids; AA treatments for 24H, day 32 organoids
  kidney damage biomarkers by immunohistochemistry: dose-dependent upregulation of kidney damage biomarkers

## JAG1: growth factor tested in 3D culture screening
NPCs in 3D culture
  number of LTL+ tubules in the organoids: did not significantly increase the number of LTL+ tubules

## CN(C(=O)CCCOc1ccc2[nH]c(=O)ccc2c1)C1CCCCC1 [cilostamide]
Kidney organoids
  PGC-1a expression (real-time quantitative PCR): protected
Kidney organoids; cilostamide with AA
  nephroprotection against AA (real-time quantitative PCR, AQP-I): dose-dependent nephroprotection against AA, significant preservation of proximal tubules
Kidney organoids; cilostamide with AA 2.5 gg/mL, 48 H, day 38 H9-derived organoids
  mitochondrial biogenesis and protection: increases mitochondrial biogenesis and protection in AA-toxicity model

## O=C(Nc1cccc2cccnc12)c1ccc(N2C(=O)[C@@H]3[C@H](C2=O)[C@@H]2C=C[C@H]3C2)cc1 [IWR-1]
NPCs in 3D culture
  number of LTL+ tubules in the organoids: did not significantly increase the number of LTL+ tubules

## HGF: growth factor tested in 3D culture screening
NPCs in 3D culture
  number of LTL+ tubules in the organoids: did not significantly increase the number of LTL+ tubules; also recorded: showed a tendency to increase LTL+ tubules

B1: WNT4: growth factor tested in 3D culture screening (protein, UniProt P56705 23-351, looked up)
Protein Wnt-4: SNWLYLAKLSSVGSISEEETCEKLKGLIQRQVQMCKRNLEVMDSVRRGAQLAIEECQYQFRNRRWNCSTLDSLPVFGKVVTQGTREAAFVYAISSAGVAFAVTRACSSGELEKCGCDRTVHGVSPQGFQWSGCSDNIAYGVAFSQSFVDVRERSKGASSSRALMNLHNNEAGRKAILTHMRVECKCHGVSGSCEVKTCWRAVPPFRQVGHALKEKFDGATEVEPRRVGSSRALVPRNAQFKPHTDEDLVYLEPSPDFCEQDMRSGVLGTRGRTCNKTSKAIDGCELLCCGRGFHTAQVELAERCSCKFHWCCFVKCRQCQRLVELHTCR
NPCs in 3D culture
  number of LTL+ tubules in the organoids: did not significantly increase the number of LTL+ tubules

B2: BMP7: growth factor tested in 3D culture screening (protein, UniProt P18075 293-431, looked up)
Bone morphogenetic protein 7: STGSKQRSQNRSKTPKNQEALRMANVAENSSSDQRQACKKHELYVSFRDLGWQDWIIAPEGYAAYYCEGECAFPLNSYMNATNHAIVQTLVHFINPETVPKPCCAPTQLNAISVLYFDDSSNVILKKYRNMVVRACGCH
NPCs in 3D culture
  number of LTL+ tubules in the organoids: did not significantly increase the number of LTL+ tubules

B3: mouse Wnt9b: growth factor tested in 3D culture screening (protein, UniProt O35468 24-359, looked up)
Protein Wnt-9b: AAYFGLTGREVLTPFPGLGTAAAPAQAGAHLKQCDLLKLSRRQKQLCRREPGLAETLRDAAHLGLLECQFQFRQERWNCSLEGRTGLLQRGFKETAFLYAVSAAALTHALARACSAGRMERCTCDDSPGLESRQAWQWGVCGDNLKYSTKFLSNFLGPKRGSKDLRARADAHNTHVGIKAVKSGLRTTCKCHGVSGSCAVRTCWKQLSPFRETGQVLKLRYDTAVKVSSATNEALGRLELWAPAKPGGPAKGLAPRPGDLVYMEDSPSFCRPSKYSPGTAGRVCSRDSSCSSLCCGRGYDTQSRMVVFSCHCQVQWCCYVECQQCAQQELVYTCKR
NPCs in 3D culture
  number of LTL+ tubules in the organoids: did not significantly increase the number of LTL+ tubules

B4: noggin: a BMP4 signaling antagonist (protein, UniProt Q13253 28-232, looked up)
Noggin: QHYLHIRPAPSDNLPLVDLIEHPDPIFDPKEKDLNETLLRSLLGGHYDPGFMATSPPEDRPGGGGGAAGGAEDLAELDQLLRQRPSGAMPSEIKGLEFSEGLAQGKKQRLSKKLRRKLQMWLWSQTFCPVLYAWNDLGSRFWPRYVKVGSCFSKRSCSVPEGMVCKPSKSVHLTVLRWRCQRRGGQRCGWIPIQYPIISECKCSC
H9 hESCs
  WT1 expression on day 7: significantly suppressed WT1 expression on day 7
HDF-α hiPSCs; noggin 5 ng/mL with CHIR in the first step of differentiation
  T, TBX6 and FOXF1 expression on day 4: expressed T and TBX6 but not FOXF1 on day 4

B5: activin: growth factor used to induce posterior intermediate mesoderm (protein, UniProt P08476 311-426, looked up)
Inhibin beta A chain: GLECDGKVNICCKKQFFVSFKDIGWNDWIIAPSGYHANYCEGECPSHIAGTSGSSLSFHSTVINHYRMRGHSPFANLKSCCVPTKLRPMSMLYYDDGQNIIKKDIQNMIVEECGCS
modifications: Inhibin beta A chain
notes: growth factor used to induce posterior intermediate mesoderm
H9 hESCs; activin 10 ng/mL between days 4 and 7, after CHIR 8 μM for 4 days
  efficiency of induction of WT1+HOXD11+ cells: ~90%
HDF-α hiPSCs; activin after CHIR plus noggin 5 ng/mL in the first step
  efficiency of generation of WT1+HOXD11+ posterior IM cells: 80-90%

B6: BMP4: growth factor; posteriorizes the primitive streak (protein, UniProt P12644 293-408, looked up)
Bone morphogenetic protein 4: SPKHHSQRARKKNKNCRRHSLYVDFSDVGWNDWIVAPPGYQAFYCHGDCPFPLADHLNSTNHAIVQTLVNSVNSSIPKACCVPTELSAISMLYLDEYDKVVLKNYQEMVVEGCGCR
H9 hESCs; BMP4 1 ng/mL added to CHIR
  FOXF1 expression at day 4: resulted in FOXF1 expression at day 4
H9 hESCs
  WT1 expression on day 7: suppression of WT1 expression on day 7
